Results reported in doi:10.1101/2021.04.08.439011v1 (biorxiv, 2021).
Where two headings read alike, the source gives them in different places.

Tests used:
CLK3 = CLK3 (Homo sapiens, UniProt P49761); conditions: 1 µM; binder
PCTK3 = PCTK3 (Homo sapiens, UniProt Q07002); conditions: 1 µM; binder
BMPR1B = BMPR1B (Homo sapiens, UniProt O00238); conditions: 1 µM; binder
GRK3 = GRK3 (Homo sapiens, UniProt P35626); conditions: 1 µM; binder
BRK = BRK (Homo sapiens, UniProt Q13882); conditions: 1 µM; binder
ROCK1 = ROCK1 (Homo sapiens, UniProt Q13464); conditions: 1 µM; binder
TIE2 = TIE2 (Homo sapiens, UniProt Q02763); conditions: 1 µM; binder
CIT = CIT (Homo sapiens, UniProt O14578); conditions: 1 µM; binder
MET(M1250T) = MET(M1250T) (Homo sapiens, UniProt P08581, M1250T); conditions: 1 µM; binder
FLT3(K663Q) = FLT3(K663Q) (Homo sapiens, UniProt P36888, K663Q); conditions: 1 µM; binder
ABL1(F317L) = ABL1(F317L) (Homo sapiens, UniProt P00519, F317L); conditions: 1 µM, binder
ABL1(F317L), sequence (P00519 whole entry F317L): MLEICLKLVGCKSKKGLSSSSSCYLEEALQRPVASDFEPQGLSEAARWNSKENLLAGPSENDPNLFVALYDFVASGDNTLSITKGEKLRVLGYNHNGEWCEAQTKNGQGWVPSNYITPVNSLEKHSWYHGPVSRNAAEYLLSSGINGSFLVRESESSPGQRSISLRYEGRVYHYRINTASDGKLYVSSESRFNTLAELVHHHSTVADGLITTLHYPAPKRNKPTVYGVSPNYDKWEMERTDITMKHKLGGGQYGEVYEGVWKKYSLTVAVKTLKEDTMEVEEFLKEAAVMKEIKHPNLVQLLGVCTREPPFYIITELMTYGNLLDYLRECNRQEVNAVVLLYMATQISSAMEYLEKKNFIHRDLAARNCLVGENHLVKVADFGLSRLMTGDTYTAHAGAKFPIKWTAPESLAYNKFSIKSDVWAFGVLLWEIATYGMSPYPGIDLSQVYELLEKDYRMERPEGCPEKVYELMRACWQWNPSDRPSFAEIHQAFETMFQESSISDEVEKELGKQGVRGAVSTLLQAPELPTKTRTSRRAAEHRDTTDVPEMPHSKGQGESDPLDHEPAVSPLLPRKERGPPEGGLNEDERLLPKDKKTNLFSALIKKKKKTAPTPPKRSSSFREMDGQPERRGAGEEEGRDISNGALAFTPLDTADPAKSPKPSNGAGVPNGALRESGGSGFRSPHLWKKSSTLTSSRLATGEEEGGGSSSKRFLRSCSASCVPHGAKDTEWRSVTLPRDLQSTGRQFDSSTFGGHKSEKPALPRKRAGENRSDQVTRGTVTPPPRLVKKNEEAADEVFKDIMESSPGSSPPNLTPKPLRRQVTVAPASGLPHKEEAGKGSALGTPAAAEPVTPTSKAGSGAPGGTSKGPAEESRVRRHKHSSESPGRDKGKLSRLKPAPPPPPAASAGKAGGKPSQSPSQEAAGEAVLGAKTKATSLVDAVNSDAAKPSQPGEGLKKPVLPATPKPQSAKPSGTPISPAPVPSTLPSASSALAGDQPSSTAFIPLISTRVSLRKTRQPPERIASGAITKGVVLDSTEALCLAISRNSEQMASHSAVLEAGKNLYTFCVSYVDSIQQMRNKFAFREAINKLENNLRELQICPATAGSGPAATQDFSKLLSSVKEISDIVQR

NEK7 = NEK7 (Homo sapiens, UniProt Q8TDX7); conditions: 1 µM; binder
TRKA = TRKA (Homo sapiens, UniProt P04629); conditions: 1 µM; binder
RIOK1 = RIOK1 (Homo sapiens, UniProt Q9BRS2); conditions: 1 µM; binder
PRP4 = PRP4 (Homo sapiens, UniProt Q13523); conditions: 1 µM; binder
PRP4, sequence (Q13523 whole entry): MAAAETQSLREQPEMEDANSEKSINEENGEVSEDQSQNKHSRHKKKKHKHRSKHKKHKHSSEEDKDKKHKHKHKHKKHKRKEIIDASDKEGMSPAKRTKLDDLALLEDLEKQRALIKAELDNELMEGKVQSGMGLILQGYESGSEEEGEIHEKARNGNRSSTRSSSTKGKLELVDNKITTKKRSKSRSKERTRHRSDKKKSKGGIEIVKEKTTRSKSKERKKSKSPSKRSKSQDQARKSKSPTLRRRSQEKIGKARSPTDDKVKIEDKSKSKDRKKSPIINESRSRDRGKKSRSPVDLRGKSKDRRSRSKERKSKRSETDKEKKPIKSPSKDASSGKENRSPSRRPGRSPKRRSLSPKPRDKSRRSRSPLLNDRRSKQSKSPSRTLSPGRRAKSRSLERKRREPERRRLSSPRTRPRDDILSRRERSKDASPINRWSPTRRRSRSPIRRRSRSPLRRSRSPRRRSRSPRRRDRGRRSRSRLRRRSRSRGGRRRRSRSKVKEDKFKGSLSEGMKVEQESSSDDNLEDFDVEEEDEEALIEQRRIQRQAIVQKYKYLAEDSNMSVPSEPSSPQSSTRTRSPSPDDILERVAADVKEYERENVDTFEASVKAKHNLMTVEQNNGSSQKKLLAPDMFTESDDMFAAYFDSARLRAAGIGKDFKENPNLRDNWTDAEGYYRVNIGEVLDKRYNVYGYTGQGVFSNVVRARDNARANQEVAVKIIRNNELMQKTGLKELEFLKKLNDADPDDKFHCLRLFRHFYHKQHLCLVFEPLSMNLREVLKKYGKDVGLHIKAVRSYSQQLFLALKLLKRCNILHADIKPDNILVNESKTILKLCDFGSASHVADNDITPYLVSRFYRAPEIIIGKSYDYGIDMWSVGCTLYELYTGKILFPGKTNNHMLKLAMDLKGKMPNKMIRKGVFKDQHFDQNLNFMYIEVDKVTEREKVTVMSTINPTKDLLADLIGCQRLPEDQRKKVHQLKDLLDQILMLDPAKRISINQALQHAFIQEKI

RPS6KA3 = RPS6KA3 (Homo sapiens, UniProt P51812); conditions: binder
RPS6KA3, sequence (P51812 whole entry): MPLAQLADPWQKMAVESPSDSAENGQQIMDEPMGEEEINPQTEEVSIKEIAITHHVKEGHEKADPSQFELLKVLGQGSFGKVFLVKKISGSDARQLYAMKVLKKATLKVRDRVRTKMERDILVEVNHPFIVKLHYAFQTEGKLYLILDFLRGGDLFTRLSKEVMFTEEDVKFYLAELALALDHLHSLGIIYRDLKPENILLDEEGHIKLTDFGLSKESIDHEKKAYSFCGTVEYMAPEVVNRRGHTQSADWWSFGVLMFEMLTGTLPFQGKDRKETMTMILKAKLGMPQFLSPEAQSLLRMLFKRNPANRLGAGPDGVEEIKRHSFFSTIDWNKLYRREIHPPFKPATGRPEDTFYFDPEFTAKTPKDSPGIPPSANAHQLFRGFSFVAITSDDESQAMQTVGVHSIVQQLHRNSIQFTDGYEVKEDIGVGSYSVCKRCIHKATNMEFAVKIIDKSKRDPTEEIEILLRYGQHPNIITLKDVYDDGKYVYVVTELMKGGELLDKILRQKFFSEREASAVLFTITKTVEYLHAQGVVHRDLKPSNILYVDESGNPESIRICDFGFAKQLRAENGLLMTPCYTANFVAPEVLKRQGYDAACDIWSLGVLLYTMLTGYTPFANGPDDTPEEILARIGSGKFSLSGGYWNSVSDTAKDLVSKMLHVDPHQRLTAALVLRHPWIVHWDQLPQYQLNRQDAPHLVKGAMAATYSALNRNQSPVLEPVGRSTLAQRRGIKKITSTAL

PNCK = PNCK (Homo sapiens, UniProt Q6P2M8); conditions: 1 µM; binder
PNCK, sequence (Q6P2M8 whole entry): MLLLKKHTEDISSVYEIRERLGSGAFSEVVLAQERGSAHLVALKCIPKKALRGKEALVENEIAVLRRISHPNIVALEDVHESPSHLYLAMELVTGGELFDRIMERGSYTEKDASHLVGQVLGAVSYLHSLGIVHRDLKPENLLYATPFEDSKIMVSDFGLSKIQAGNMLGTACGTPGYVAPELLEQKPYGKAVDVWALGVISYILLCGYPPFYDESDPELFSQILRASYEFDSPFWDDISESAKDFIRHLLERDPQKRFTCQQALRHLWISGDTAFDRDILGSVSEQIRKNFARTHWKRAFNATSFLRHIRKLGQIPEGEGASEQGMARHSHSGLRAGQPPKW

FLT3(D835V) = FLT3(D835V) (Homo sapiens, UniProt P36888, D835V); conditions: 1 µM; binder
NEK10 = NEK10 (Homo sapiens, UniProt Q6ZWH5); conditions: 1 µM; binder
MAP4K5 = MAP4K5 (Homo sapiens, UniProt Q9Y4K4); conditions: 1 µM; binder
IGF1R = IGF1R (Homo sapiens, UniProt P08069); conditions: 1 µM; binder
MAPKAPK2 = MAPKAPK2 (Homo sapiens, UniProt P49137); conditions: 1 µM; binder
MYO3B = MYO3B (Homo sapiens, UniProt Q8WXR4); conditions: 1 µM; binder
ABL2 = ABL2 (Homo sapiens, UniProt P42684); conditions: 1 µM; binder
ABL2, sequence (P42684 whole entry): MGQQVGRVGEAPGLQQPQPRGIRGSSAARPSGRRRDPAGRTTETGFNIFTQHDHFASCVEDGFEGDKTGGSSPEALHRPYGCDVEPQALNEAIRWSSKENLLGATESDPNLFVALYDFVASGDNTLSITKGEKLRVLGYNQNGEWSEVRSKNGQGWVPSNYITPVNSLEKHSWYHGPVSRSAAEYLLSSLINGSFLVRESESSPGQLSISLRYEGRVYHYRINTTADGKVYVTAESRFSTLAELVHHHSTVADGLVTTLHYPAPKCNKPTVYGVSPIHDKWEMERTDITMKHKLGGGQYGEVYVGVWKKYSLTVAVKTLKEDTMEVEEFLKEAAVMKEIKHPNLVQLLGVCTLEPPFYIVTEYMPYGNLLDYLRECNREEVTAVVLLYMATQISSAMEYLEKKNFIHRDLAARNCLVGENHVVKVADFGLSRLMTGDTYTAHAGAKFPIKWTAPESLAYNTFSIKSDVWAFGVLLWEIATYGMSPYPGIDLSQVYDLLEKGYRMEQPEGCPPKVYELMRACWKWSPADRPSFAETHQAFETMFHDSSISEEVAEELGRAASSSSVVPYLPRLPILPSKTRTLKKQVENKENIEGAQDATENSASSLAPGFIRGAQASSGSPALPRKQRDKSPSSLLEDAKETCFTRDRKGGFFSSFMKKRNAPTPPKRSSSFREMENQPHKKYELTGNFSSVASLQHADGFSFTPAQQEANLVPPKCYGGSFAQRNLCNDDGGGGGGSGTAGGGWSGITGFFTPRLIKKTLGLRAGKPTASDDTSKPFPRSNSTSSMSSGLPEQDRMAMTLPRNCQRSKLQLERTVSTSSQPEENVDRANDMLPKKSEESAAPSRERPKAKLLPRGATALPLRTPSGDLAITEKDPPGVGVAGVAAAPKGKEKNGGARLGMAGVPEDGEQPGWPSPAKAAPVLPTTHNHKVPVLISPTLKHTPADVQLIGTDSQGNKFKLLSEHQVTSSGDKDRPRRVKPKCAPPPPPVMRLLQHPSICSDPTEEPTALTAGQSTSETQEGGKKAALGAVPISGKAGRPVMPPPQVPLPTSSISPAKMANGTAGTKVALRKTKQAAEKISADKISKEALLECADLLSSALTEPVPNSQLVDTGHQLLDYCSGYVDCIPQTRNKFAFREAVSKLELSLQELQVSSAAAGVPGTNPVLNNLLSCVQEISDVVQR

PIK3CA(C420R) = PIK3CA(C420R) (Homo sapiens, UniProt P42336, C420R); conditions: 1 µM; binder
IRAK1 = IRAK1 (Homo sapiens, UniProt P51617); conditions: 1 µM; binder
FLT3(D835Y) = FLT3(D835Y) (Homo sapiens, UniProt P36888, D835Y); conditions: 1 µM; binder
GSK3B = GSK3B (Homo sapiens, UniProt P49841); conditions: 1 µM; binder
EPHA1 = EPHA1 (Homo sapiens, UniProt P21709); conditions: 1 µM; binder

GRK3, sequence (P35626 whole entry): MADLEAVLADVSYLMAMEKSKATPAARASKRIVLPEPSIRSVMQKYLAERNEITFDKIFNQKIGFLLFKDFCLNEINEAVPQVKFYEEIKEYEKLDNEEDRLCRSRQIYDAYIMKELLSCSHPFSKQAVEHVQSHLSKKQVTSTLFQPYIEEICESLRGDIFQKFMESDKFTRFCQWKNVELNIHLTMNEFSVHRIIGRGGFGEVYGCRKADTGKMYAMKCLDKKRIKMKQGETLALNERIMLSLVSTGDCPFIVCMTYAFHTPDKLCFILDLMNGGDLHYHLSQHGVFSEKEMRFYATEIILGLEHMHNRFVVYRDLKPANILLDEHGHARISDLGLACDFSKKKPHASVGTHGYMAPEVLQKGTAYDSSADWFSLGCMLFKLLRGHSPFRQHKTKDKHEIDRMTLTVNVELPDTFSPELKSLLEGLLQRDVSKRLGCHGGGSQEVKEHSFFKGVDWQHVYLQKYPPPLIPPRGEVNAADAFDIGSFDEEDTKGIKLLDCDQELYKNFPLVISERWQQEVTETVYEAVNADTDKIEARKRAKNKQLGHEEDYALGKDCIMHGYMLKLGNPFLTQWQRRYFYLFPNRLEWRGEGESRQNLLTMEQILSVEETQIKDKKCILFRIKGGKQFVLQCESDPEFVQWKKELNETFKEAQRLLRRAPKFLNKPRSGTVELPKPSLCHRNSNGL

CNc1ncc2cc(-c3ccc(-c4cccc(C)n4)cc3Cl)c(=O)n(C[C@H]3OC[C@H](N)CO3)c2n1 [compound 6, G-5555]
Percent Control (CLK3): 100% | Percent Control (PCTK3): 100% | Percent Control (BMPR1B): 96% | Percent Control (GRK3): 72% | Percent Control (BRK): 100% | Percent Control (ROCK1): 100% | Percent Control (TIE2): 52% | Percent Control (CIT): 100% | Percent Control (MET(M1250T)): 45% | Percent Control (FLT3(K663Q)): 100% | Percent Control (ABL1(F317L); nonphosphorylated): 87% | Percent Control (ABL1(F317L); phosphorylated): 100% | Percent Control (NEK7): 100% | Percent Control (TRKA): 64% | Percent Control (RIOK1): 100% | Percent Control (PRP4): 95% | Percent Control (RPS6KA3; Kin.Dom.1 N-terminal): 65% | Percent Control (RPS6KA3; Kin.Dom.2 C-terminal, 1 µM): 63% | Percent Control (PNCK): 30% | Percent Control (FLT3(D835V)): 67% | Percent Control (NEK10): 100% | Percent Control (MAP4K5): 5.3% | Percent Control (IGF1R): 100% | Percent Control (MAPKAPK2): 100% | Percent Control (MYO3B): 57% | Percent Control (ABL2): 100% | Percent Control (PIK3CA(C420R)): 100% | Percent Control (IRAK1): 49% | Percent Control (FLT3(D835Y)): 81% | Percent Control (GSK3B): 100% | Percent Control (EPHA1): 34%
